Source: PubChem BioAssay (NCI)
“And” between values parts separate entries of the source, which are not always exact repeats. Equal entries are not always repeated.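 Following 48 hours of exposure in 96-well plates, responses at five concentrations were used to interpolate endpoints linearly. The concentration for 50% growth inhibition is given as GI50. The concentration for full growth arrest is given as TGI.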

How the values were obtained:
Assay in all cases: DTP human tumour cell line panel, 48 h
CAKI-1 renal = tested on: CAKI-1 renal
EKVX NSCLC = tested on: EKVX NSCLC
HCC-2998 colon = tested on: HCC-2998 colon
HCT-116 colon = tested on: HCT-116 colon
NCI-H23 lung = tested on: NCI-H23 lung
NCI-H460 lung = tested on: NCI-H460 lung
OVCAR-5 ovarian = tested on: OVCAR-5 ovarian
RPMI-8226 leukemia = tested on: RPMI-8226 leukemia
SK-MEL-28 melanoma = tested on: SK-MEL-28 melanoma
SK-OV-3 ovarian = tested on: SK-OV-3 ovarian

## CNC(=O)NCCCCC(NC(=O)OCc1ccccc1)C(=O)OCc1ccccc1 (stereo not given)
CAKI-1 renal
  TGI: 48.6 µM
EKVX NSCLC
  TGI: > 100 µM
HCC-2998 colon
  TGI: 36.9 µM
HCT-116 colon
  TGI: > 100 µM
NCI-H23 lung
  TGI: 67.4 µM
NCI-H460 lung
  TGI: > 100 µM
OVCAR-5 ovarian
  TGI: > 100 µM
RPMI-8226 leukemia
  TGI: 51.4 µM
SK-MEL-28 melanoma
  TGI: 60.6 µM
SK-OV-3 ovarian
  TGI: > 100 µM

## CCN(CC)CCOc1ccccc1-n1c(C)ccc1-c1ccccc1
CAKI-1 renal
  GI50: 13.6 µM
  TGI: 28 µM
EKVX NSCLC
  GI50: 15.8 µM
  TGI: 33.6 µM
HCC-2998 colon
  GI50: 13900 nM
  TGI: 28.5 µM
HCT-116 colon
  GI50: 12000 nM
  TGI: 25.8 µM
NCI-H23 lung
  GI50: 14200 nM
  TGI: 29.9 µM
NCI-H460 lung
  GI50: 18200 nM
  TGI: 38 µM
OVCAR-5 ovarian
  GI50: 15700 nM
  TGI: 30.1 µM
RPMI-8226 leukemia
  GI50: 22.9 µM
  TGI: 68.7 µM
SK-MEL-28 melanoma
  GI50: 15700 nM
  TGI: 29.7 µM
SK-OV-3 ovarian
  GI50: 17300 nM
  TGI: 31.4 µM

## C=C(C)[C@@H]1CC[C@]2(COC(=O)c3ccccc3C(=O)O)CC[C@]3(C)[C@H](CC[C@@H]4[C@@]5(C)CC[C@H](OC(=O)c6ccccc6C(=O)O)C(C)(C)[C@@H]5CC[C@]43C)[C@@H]12
CAKI-1 renal
  GI50: 18.6 µM
  TGI: 85.2 µM
EKVX NSCLC
  GI50: 37.4 µM
  TGI: > 100 µM
HCC-2998 colon
  GI50: 74300 nM
  TGI: > 100 µM
HCT-116 colon
  GI50: 33100 nM
  TGI: > 100 µM
NCI-H23 lung
  GI50: 42700 nM
  TGI: > 100 µM
NCI-H460 lung
  GI50: 85100 nM
  TGI: > 100 µM
OVCAR-5 ovarian
  GI50: > 100000 nM
  TGI: > 100 µM
RPMI-8226 leukemia
  GI50: 14.8 µM
  TGI: > 100 µM
SK-MEL-28 melanoma
  GI50: 95500 nM
  TGI: > 100 µM
SK-OV-3 ovarian
  GI50: 35800 nM
  TGI: > 100 µM

## NC(=O)/C=C/c1c[nH]c2nccnc12
CAKI-1 renal
  TGI: > 100 µM
EKVX NSCLC
  TGI: 24.7 µM
HCC-2998 colon
  TGI: 5.28 µM
HCT-116 colon
  TGI: > 37.5 µM
NCI-H23 lung
  TGI: 2.74 µM
NCI-H460 lung
  TGI: > 54 µM
OVCAR-5 ovarian
  TGI: 0.662 µM
RPMI-8226 leukemia
  TGI: > 100 µM
SK-MEL-28 melanoma
  TGI: 4.26 µM
SK-OV-3 ovarian
  TGI: > 100 µM

## COc1ccc(-n2nc(C(=O)NCC(=O)Nc3nc4cc(OC)ccc4s3)c3ccccc3c2=O)cc1
CAKI-1 renal
  GI50: 0.366 µM
  TGI: 2.99 µM
EKVX NSCLC
  GI50: 1.96 µM
  TGI: 14.8 µM
HCC-2998 colon
  GI50: 589 nM
  TGI: 7.89 µM
HCT-116 colon
  GI50: 1640 nM
  TGI: > 100 µM
NCI-H23 lung
  GI50: 1320 nM
  TGI: 9 µM
NCI-H460 lung
  GI50: 556 nM
OVCAR-5 ovarian
  GI50: 2320 nM
  TGI: > 20.7 µM
RPMI-8226 leukemia
  TGI: > 100 µM
SK-MEL-28 melanoma
  GI50: 631 nM
  TGI: 2.3 µM
SK-OV-3 ovarian
  GI50: 1830 nM
  TGI: 4.93 µM

## O=C(Cc1ccc(-c2ccc(OCCN3CCOCC3)cc2)cn1)NCc1ccccc1
CAKI-1 renal
  GI50: 0.0703 µM and 0.0506 µM
  TGI: > 100 µM
EKVX NSCLC
  TGI: > 100 µM
HCC-2998 colon
  GI50: 31.6 nM and 166 nM
HCT-116 colon
  GI50: 37.3 nM and 39.9 nM
  TGI: > 100 µM
NCI-H23 lung
  GI50: 45.8 nM and 49.3 nM
  TGI: > 100 µM
NCI-H460 lung
  GI50: 35.5 nM and 37.1 nM
  TGI: 16.2 µM and > 10 µM
OVCAR-5 ovarian
  GI50: 60.5 nM and 119 nM
  TGI: > 100 µM
RPMI-8226 leukemia
  GI50: 0.0427 µM and 0.0358 µM
  TGI: > 50.2 µM
SK-MEL-28 melanoma
  GI50: 46.2 nM and 211 nM
  TGI: > 100 µM
SK-OV-3 ovarian
  GI50: 30.3 nM and 54.9 nM
  TGI: 7.01 µM and > 10 µM

## COc1ccc2c3c1OC1C4(CCC5C(C2)N(CC2CC2)CCC351)OCCO4 (stereo not given)
CAKI-1 renal
  TGI: > 100 µM
EKVX NSCLC
  TGI: > 100 µM
HCC-2998 colon
  TGI: > 100 µM
HCT-116 colon
  TGI: > 100 µM
NCI-H23 lung
  TGI: > 100 µM
NCI-H460 lung
  TGI: > 100 µM
OVCAR-5 ovarian
  TGI: > 100 µM
RPMI-8226 leukemia
  TGI: > 100 µM
SK-MEL-28 melanoma
  TGI: > 100 µM
SK-OV-3 ovarian
  TGI: > 100 µM

## COc1cc(NC(=O)c2cc3ccccc3cc2O)c(OC)cc1Cl
CAKI-1 renal
  TGI: 3.76 µM
EKVX NSCLC
  GI50: 1.29 µM
  TGI: 5.01 µM
HCC-2998 colon
  GI50: 2680 nM
  TGI: 7.72 µM
HCT-116 colon
  GI50: 2480 nM
  TGI: 11.1 µM
NCI-H23 lung
  GI50: 1590 nM
  TGI: 7.05 µM
NCI-H460 lung
  GI50: 1900 nM
  TGI: 4.91 µM
OVCAR-5 ovarian
  GI50: 2250 nM
  TGI: 10.6 µM
RPMI-8226 leukemia
  GI50: 0.153 µM
  TGI: 1.18 µM
SK-MEL-28 melanoma
  GI50: 2860 nM
  TGI: 10.7 µM
SK-OV-3 ovarian
  GI50: 1390 nM
  TGI: 3.94 µM

## COc1cc2ccnc(-c3n[nH]c4cc(OC)c(OC)cc34)c2cc1OC
CAKI-1 renal
  TGI: > 100 µM
EKVX NSCLC
  TGI: > 100 µM
HCC-2998 colon
  TGI: > 100 µM
HCT-116 colon
  TGI: > 100 µM
NCI-H23 lung
  TGI: > 100 µM
NCI-H460 lung
  TGI: > 100 µM
OVCAR-5 ovarian
  TGI: > 100 µM
RPMI-8226 leukemia
  TGI: > 100 µM
SK-MEL-28 melanoma
  TGI: > 100 µM
SK-OV-3 ovarian
  TGI: > 100 µM

## C=CC(=O)OCCCS(=O)(=O)[O-].C=CC(=O)OCCCS(=O)(=O)[O-].NC1CCCCC1N.[Pt+4]
CAKI-1 renal
  GI50: > 25 µM
  TGI: > 25 µM
EKVX NSCLC
  GI50: > 25 µM
  TGI: > 25 µM
HCC-2998 colon
  GI50: > 25000 nM
  TGI: > 25 µM
HCT-116 colon
  GI50: > 25000 nM
  TGI: > 25 µM
NCI-H23 lung
  GI50: > 25000 nM
  TGI: > 25 µM
NCI-H460 lung
  GI50: > 25000 nM
  TGI: > 25 µM
OVCAR-5 ovarian
  GI50: > 25000 nM
  TGI: > 25 µM
RPMI-8226 leukemia
  GI50: > 25 µM
  TGI: > 25 µM
SK-MEL-28 melanoma
  GI50: > 25000 nM
  TGI: > 25 µM
SK-OV-3 ovarian
  GI50: > 25000 nM
  TGI: > 25 µM

## O=C1c2ccccc2-c2c1c1ccc([N+](=O)[O-])cc1c(=O)n2CCN1CCOCC1
CAKI-1 renal
  GI50: 41.3 µM
  TGI: > 100 µM
EKVX NSCLC
  GI50: > 100 µM
  TGI: > 100 µM
HCC-2998 colon
  GI50: > 100000 nM
  TGI: > 100 µM
HCT-116 colon
  GI50: > 100000 nM
  TGI: > 100 µM
NCI-H23 lung
  GI50: > 100000 nM
  TGI: > 100 µM
NCI-H460 lung
  GI50: 78400 nM
  TGI: > 100 µM
OVCAR-5 ovarian
  GI50: > 100000 nM
  TGI: > 100 µM
RPMI-8226 leukemia
  GI50: 35.7 µM
  TGI: > 100 µM
SK-MEL-28 melanoma
  GI50: > 100000 nM
  TGI: > 100 µM
SK-OV-3 ovarian
  GI50: > 100000 nM
  TGI: > 100 µM

## Nc1ccccc1-n1c2c(c3ccccc3c1=O)C(=O)c1ccccc1-2
CAKI-1 renal
  TGI: 50.7 µM
EKVX NSCLC
  TGI: > 100 µM
HCC-2998 colon
  TGI: > 100 µM
HCT-116 colon
  TGI: > 100 µM
NCI-H23 lung
  TGI: 51.1 µM
NCI-H460 lung
  TGI: > 100 µM
OVCAR-5 ovarian
  TGI: > 100 µM
RPMI-8226 leukemia
  TGI: > 100 µM
SK-MEL-28 melanoma
  TGI: > 100 µM
SK-OV-3 ovarian
  TGI: 21.5 µM
